Read-outs that look alike come from different tables or passages of the source. Where a SMILES comes first, the peptide text is derived from it. [ ]: non-standard residue; d: D form. Gly(Nα-oleyl) = CCCCCCCC/C=C\CCCCCCCCNCC(=O)O; N(2-ethylhexyl)Gly = CCCCC(CC)CNCC(=O)O; Gly(N-dodecyl) = CCCCCCCCCCCCNCC(=O)O; N(CH(CH2OH)2)Gly = O=C(O)CNC(CO)CO; N(octyl)Gly = CCCCCCCCNCC(=O)O; NDecylGly = CCCCCCCCCCNCC(=O)O
What was measured:
[1] = Particle size and polydispersity (PDI) of delivery vehicles by dynamic light scattering; type: physicochemical; details: Table 5; delivery vehicle comprising the peptoid, Formulation D22, fLuc mRNA
Method: The resulting delivery vehicle complexes were evaluated by dynamic light scattering (DLS) to determine the volume average particle size/diameter (nm) and the size polydispersity index (PDI) within the delivery vehicle complex.
Particle size. Particle sizes and size distributions were measured using a Wyatt DynaPro® Plate Reader III. In general, formulated samples were diluted to 2 ng/μL in 100 µL PBS. Data is reported as the hydrodynamic diameter (in nm) of the cumulant fit of the correlation function, and the polydispersity of that measurement.
(§1) In one particular instance, the size and polydispersity (PDI) of delivery vehicles was measured by dynamic light scattering in PBS using a DynaPro® plate reader III. The zeta potential of delivery vehicles was determined using Nano-ZS™ particle analyzer. Zeta sample was diluted to 30 uM total lipid in a weakly buffered solution of 10 mM HEPES, 10 mM MES, 10 mM ammonium acetate pH 7. Measurements were collected in duplicate for over 30 run with the voltage manually set to […]

[2] = Percent encapsulated mRNA, RiboGreen assay; type: physicochemical; details: Table 5; delivery vehicle comprising the peptoid, Formulation D22, fLuc mRNA
Method: Percent encapsulation. The percentage of mRNA encapsulated within the delivery vehicle complexes containing Fluc mRNA was determined using a modified RiboGreen® assay. In general, formulated mRNA samples were diluted to 500 ng/ml in Tris-EDTA buffer with or without Triton-X™. RiboGreen® (Invitrogen) was added at a 200-fold dilution, and the plate was incubated for 5 minutes. Fluorescence was measured at Ex. […]/Em. 520 nm and encapsulated mRNA was calculated by taking the ratio of fluorescence for non-lysed particles versus lysed particles.
The mRNA concentration and the percentage of encapsulated mRNA were determined using a fluorescence-based Quant-iT™ RiboGreen® RNA Reagent Kit using a literature procedure. To determine the mRNA concentration, delivery vehicles were incubated with 2% Triton™ X-100 for 10 min to release entrapped mRNA, followed by addition of RiboGreen® RNA reagent. The fluorescence intensity of mRNA-RiboGreen® reagent complex (excitation at 485 nm and emission at 530 nm) was detected using a microplate reader. The ratio of fluorescence without and with Triton™ X-100 were used to calculate the percentage of encapsulated mRNA.

[3] = Zeta potential of delivery vehicles; type: physicochemical; details: Table 5; delivery vehicle, pH 7 buffer; in mV (unit assumed)
Method: as §1

[4] = Apparent particle pKa, TNS fluorescence assay; type: physicochemical; details: Table 5; apparent particle pKa of delivery vehicle
Method: The apparent particle pKa was assessed by a TNS fluorescence assay. Briefly, particles were diluted to 130 uM total lipid in TNS buffer ranging in pH 3-11 for 10 minutes with […] of TNS probe. The fluorescence was measured at room temperature in a plate reader ex 320/em 445. Fluorescence intensity was normalized to the minimal and maximal values and the pKa was determined by a 3 parameter fit to determine the half maximum of the curve.

[5] = RBC hemolysis as metric for fusogenicity; type: cell-based; details: sheep red blood cells (RBCs), 5% v/v, Table 5, delivery vehicle, 37° C. 45 min
Method: RBC hemolysis was used as a metric for fusogenicity of LNPs at low pH. […] Particles were diluted to […] total lipid in well with 5% RBC solution and incubated at 37° C. for 45 min. Supernatant was collected and absorbance read on a microplate reader at 425 nm. Fusion was normalized to a fully lysed sample with 2% Triton™ and a buffer-only control. % hemolysis=100*[(ABS T-background)−(ABS sample-background)/(ABS T-background)].

[6] = pH 5, read-out: Hemolysis at pH 5
[7] = pH 7, read-out: Hemolysis at pH 7

| SMILES | PDI [1] | Particle Size (nm) [1] | % Encapsulation [2] | Zeta Potential [3] | pKa (TNS) [4] | hemolysis at 45 min, 150 mM total lipid [5, 6] | hemolysis at 45 min, 150 mM total lipid [5, 7] |
| --- | --- | --- | --- | --- | --- | --- | --- |
| CCCCCCCCCCCCN(CC(N)=O)C(=O)CN(CC(CC)CCCC)C(=O)CN(CCCCCCCCCCCC)C(=O)CN(CCCCCCCCCCCC)C(=O)CN(CC(CC)CCCC)C(=O)CN(CCCCCCCCCCCC)C(=O)CNC(CO)CO (stereo not shown) [Compound 40] (H-[N(CH(CH2OH)2)Gly][Gly(N-dodecyl)][N(2-ethylhexyl)Gly][Gly(N-dodecyl)][Gly(N-dodecyl)][N(2-ethylhexyl)Gly][Gly(N-dodecyl)]-NH2) | Multimodal | 270.5 nm | 55.9% | −7.48 | 4.883 | 0.5% | -0.1% |
| CCCCCCCC/C=C\CCCCCCCCN(CC(=O)N(CCCCCCCCCC)CC(=O)N(CCCCCCCC/C=C\CCCCCCCC)CC(=O)N(CCCCCCCCCC)CC(N)=O)C(=O)CNC(CO)CO [Compound 6] | 0.39 | 71.3 nm | 85.9% | −0.785 | 6.373 | 21.5% | 60.6% |
| CCCCCCCCCCCCN(CC(=O)N(CCCCCCCCCC)CC(N)=O)C(=O)CN(CCCCCCCCCC)C(=O)CN(CCCCCCCCCC)C(=O)CN(CCCCCCCCCCCC)C(=O)CN(CCCCCCCCCC)C(=O)CNC(CO)CO [Compound 27] (H-[N(CH(CH2OH)2)Gly][NDecylGly][Gly(N-dodecyl)][NDecylGly][NDecylGly][Gly(N-dodecyl)][NDecylGly]-NH2) | 0.214 | 107.6 nm | 87.9% | 1.84 | 5.48 | 12.4% | 9.1% |
| CCCCCCCCCCN(CC(=O)N(CC(N)=O)CC(CC)CCCC)C(=O)CN(CCCCCCCC)C(=O)CN(CC(CC)CCCC)C(=O)CN(CCCCCCCCCC)C(=O)CN(CCCCCCCC)C(=O)CNC(CO)CO (stereo not shown) [Compound 28] (H-[N(CH(CH2OH)2)Gly][N(octyl)Gly][NDecylGly][N(2-ethylhexyl)Gly][N(octyl)Gly][NDecylGly][N(2-ethylhexyl)Gly]-NH2) | 0.089 | 86.6 nm | 82.2% | −5.98 | 5.844 | 15.1% | 5.6% |
| CCCCCCCC/C=C\CCCCCCCCN(CC(=O)N(CCCCCCCC)CC(=O)N(CCCCCCCC/C=C\CCCCCCCC)CC(=O)N(CCCCCCCC)CC(N)=O)C(=O)CNC(CO)CO [Compound 44] | 0.194 | 98.1 nm | 76.4% | 2.39 | 6.936 | 51.6% | 95.8% |
| CCCCCCCC/C=C\CCCCCCCCN(CC(N)=O)C(=O)CN(CCCCCCCC)C(=O)CN(CCCCCCCC/C=C\CCCCCCCC)C(=O)CNC(CO)CO [Compound 20] (H-[N(CH(CH2OH)2)Gly][Gly(Nα-oleyl)][N(octyl)Gly][Gly(Nα-oleyl)]-NH2) | 0.18 | 65.4 nm | 70.1% | 3.41 | 5.773 | 16.7% | 33.3% |
| CCCCCCCCCCCCN(CC(=O)N(CCCCCC)CC(N)=O)C(=O)CN(CCCCCCCCCCCC)C(=O)CN(CC(CC)CCCC)C(=O)CN(CCCCCC)C(=O)CN(CCCCCCCCCCCC)C(=O)CN(CCCCCCCCCCCC)C(=O)CN(CC(CC)CCCC)C(=O)CNC(CO)CO (stereo not shown) [Compound 17] | 0.11 | 96.7 nm | 50.3% | −17.8 | 5.656 | 2.1% | 0.3% |
| CCCCCCCCCCCCN(CC(=O)N(CCCCCCCCCCCC)CC(=O)N(CC(=O)N(CCCCCCCCCCCC)CC(=O)N(CCCCCCCCCCCC)CC(=O)N(CC(N)=O)CC(CC)CCCC)CC(CC)CCCC)C(=O)CNC(CO)CO (stereo not shown) [Compound 30] (H-[N(CH(CH2OH)2)Gly][Gly(N-dodecyl)][Gly(N-dodecyl)][N(2-ethylhexyl)Gly][Gly(N-dodecyl)][Gly(N-dodecyl)][N(2-ethylhexyl)Gly]-NH2) | 0.097 | 82.6 nm | 87.7% | −1.41 | 6.084 | 17.3% | 2.1% |
| CCCCC(CC)CN(CC(N)=O)C(=O)CN(CC(CC)CCCC)C(=O)CN(CC(CC)CCCC)C(=O)CN(CC(CC)CCCC)C(=O)CNC(CO)CO (stereo not shown) [Compound 24] | 0.12 | 66.9 nm | 97.6% | −1.59 | 6.43 | 100% | 99.9% |
| CCCCCCCCCCN(CC(=O)N(CCCCCCCCCC)CC(=O)N(CC(=O)N(CCCCCCCCCC)CC(=O)N(CCCCCCCCCC)CC(=O)N(CC(N)=O)CC(CC)CCCC)CC(CC)CCCC)C(=O)CNC(CO)CO (stereo not shown) [Compound 29] (H-[N(CH(CH2OH)2)Gly][NDecylGly][NDecylGly][N(2-ethylhexyl)Gly][NDecylGly][NDecylGly][N(2-ethylhexyl)Gly]-NH2) | 0.094 | 92.7 nm | 81.9% | −7.04 | 6.044 | 4.8% | 1.3% |
| CCCCCCCCN(CC(N)=O)C(=O)CN(CCCCCC)C(=O)CN(CCCCCC)C(=O)CN(CCCCCC)C(=O)CN(CCCCCC)C(=O)CN(CCCCCC)C(=O)CN(CCCCCC)C(=O)CN(CCCCCCCC)C(=O)CNC(CO)CO [Compound 10] | 0.3 | 122.5 nm | 97.0% | −2.71 | 6.052 | 1.1% | 0% |
| CCCCCCCCCCCCN(CC(=O)N(CCCCCCCCCC)CC(=O)N(CCCCCCCCCCCC)CC(=O)N(CCCCCCCCCC)CC(N)=O)C(=O)CNC(CO)CO [Compound 22] | 0.179 | 51.5 nm | 83.3% | 4.24 | 5.888 | 58.9% | 81.5% |
| CCCCCCCCCCCCN(CC(N)=O)C(=O)CN(CCCCCCCCCCCC)C(=O)CN(CCCCCCCCCCCC)C(=O)CN(CCCCCCCCCCCC)C(=O)CN(CCCCCCCCCCCC)C(=O)CN(CCCCCCCCCCCC)C(=O)CNC(CO)CO [Compound 16] (H-[N(CH(CH2OH)2)Gly][Gly(N-dodecyl)][Gly(N-dodecyl)][Gly(N-dodecyl)][Gly(N-dodecyl)][Gly(N-dodecyl)][Gly(N-dodecyl)]-NH2) | 0.24 | 93.1 nm | 30.6% | −3.58 | 5.554 | 4.1% | 2.2% |

Reference: patent US20260083769A1, “2-Aminopropane-1,3-Diol-Capped Cationic Peptoids for Nucleic Acid Delivery” (NUTCRACKER THERAPEUTICS, INC., priority 2022, published 2026)
